Test [1] in a line: conscious rat diuretic screen of Lipschitz (Table I). In kind it is in vivo, rat (female Sprague Dawley; male Okamoto-Aoki). To be noted: for response vs control in vivo at 0.3 mg/kg / response vs control in vivo at 3 mg/kg / response vs control in vivo at 30 mg/kg / response vs control in vivo at 10 mg/kg: Rattus norvegicus, po. The method in brief:
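Conscious rats (female Sprague Dawley or male Okamoto-Aoki) received test compound orally in dose-response fashion; urine volume, Na+ and K+ excretion were measured. Values are ratios of amounts excreted by treated versus control rats.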

Test [2] has as its system α blocking activity (norepinephrine). The test can be described thus: in vivo α blocking activity, norepinephrine (NE) as α-agonist (Table III). To be noted: ED50 after/before drug. Details: species or system rat. As for the experimental part: In this example the compounds of Examples I (modified), II, III, V, VI, VII, VIII, IX and XI were tested in rats for in vivo α blocking activity according to methodology described at page 312 of Deitchman, et al., Journal of Pharmacological Methods, 3, 311-321 (1980). In this test phenylephrine (PE below) or norepinephrine (NE below) was administered as an α-agonist to the rats before and after dosing with the test drug and the average interpolated dose or PE/NE effecting a 50 mm Hg increase in mean arterial blood pressure was determined. Table III below records the results. In such Table, ED50 stands for such average interpolated dose and Average Dose Shift stands for the average ratio of ED50 after drug administration to ED50 before drug administration. The compound of Example I was tested as its monochloride 2-propanolate hydrate, i.e. as C22 H27 ClN4 O4 S.HCl 0.2(CH3)2 CHOH.0.15H2 O in Tests 1-5 and as the 3/4 mole hydrochloride, i.e. C22 H27 ClN 4 O4 S.3/4HCL in Tests 2a and 3a. The route was intravenous except in the case of the runs of Test Nos. 2a, 3, 3a, 26-29 the route was oral.

Where [3] appears, read: 3 mg/kg oral, male Okamoto-Aoki rats.
Setting [4] is: 30 mg/kg oral, female Sprague Dawley rats.
Setting [5] is: 30 mg/kg oral, male Okamoto-Aoki rats.
Setting [6] is: 3 mg/kg oral, male Okamoto-Aoki rats, read-out: K+ Ratio.
[7] abbreviates: 3 mg/kg oral, male Okamoto-Aoki rats, read-out: Na+ Ratio.
Where [8] appears, read: 3 mg/kg oral, male Okamoto-Aoki rats, read-out: Volume Ratio.
Setting [9] is: 30 mg/kg oral, female Sprague Dawley rats, read-out: K+ Ratio.
The mark [10] stands for this setting: 30 mg/kg oral, female Sprague Dawley rats, read-out: Na+ Ratio.
Where [11] appears, read: 30 mg/kg oral, female Sprague Dawley rats, read-out: Volume Ratio.
Setting [12] is: 30 mg/kg oral, male Okamoto-Aoki rats, read-out: K+ Ratio.
The mark [13] stands for this setting: 30 mg/kg oral, male Okamoto-Aoki rats, read-out: Na+ Ratio.
Setting [14] is: 30 mg/kg oral, male Okamoto-Aoki rats, read-out: Volume Ratio.

Where two headings read alike, the source gives them in different places.

`COc1ccccc1N1CCN(CCCN2Cc3cc(Cl)c(S(N)(=O)=O)cc3C2=O)CC1` [Example I, 6-chloro-2,3-dihydro-2-[3-[4-(2-methoxyphenyl)-1-piperazinyl]propyl]-3-oxo-1H-isoindole-5-sulfonamide]: the “Urinary Na/K (Test Compound)” value stood at 0.81 in test [1] (0.3 mg/kg oral, male Okamoto-Aoki rats); 2.55 in test [1] (3 mg/kg oral, female Sprague Dawley rats); 1.14 in test [1] (setting [3]); 2.98 in test [1] (setting [4]); 1.56 in test [1] (setting [5]). For the same compound, the “natriuretic response (in words)” value in test [1] (3.0 to 30 mg/kg body weight) was “dose-dependent natriuretic response”. For the same compound, the response vs control in vivo at 0.3 mg/kg is 78% in test [1] (0.3 mg/kg oral, male Okamoto-Aoki rats, read-out: K+ Ratio); 96% in test [1] (0.3 mg/kg oral, male Okamoto-Aoki rats, read-out: Na+ Ratio); 82% in test [1] (0.3 mg/kg oral, male Okamoto-Aoki rats, read-out: Volume Ratio). In addition, the response vs control in vivo at 3 mg/kg came out at 100% in test [1] (3 mg/kg oral, female Sprague Dawley rats, read-out: K+ Ratio); 108% in test [1] (3 mg/kg oral, female Sprague Dawley rats, read-out: Na+ Ratio); 93% in test [1] (3 mg/kg oral, female Sprague Dawley rats, read-out: Volume Ratio); 103% in test [1] (setting [6]); 168% in test [1] (setting [7]); 204% in test [1] (setting [8]). In addition, the response vs control in vivo at 30 mg/kg came out at 106% in test [1] (setting [9]); 136% in test [1] (setting [10]); 98% in test [1] (setting [11]); 117% in test [1] (setting [12]); 261% in test [1] (setting [13]); 251% in test [1] (setting [14]). Moreover, the “Average Dose Shift” value in test [2] (dose 0.3, intravenous) was 3 ± 0.3; in test [2] (dose 1.0, intravenous), 11 ± 1.

Consider `COc1ccccc1N1CCN(CCN2Cc3cc(Cl)c(S(N)(=O)=O)cc3C2=O)CC1` [Example III, 6-Chloro-2,3-dihydro-2-[2-[4-(2-methoxyphenyl)-1-piperazinyl]ethyl]-3-oxo-1H-isoindole-5-sulfonamide], for which the “Urinary Na/K (Test Compound)” value in test [1] (setting [3]) was 6.1; in test [1] (10 mg/kg oral, male Okamoto-Aoki rats) it was 6.7; in test [1] (setting [4]), 3.44; in test [1] (setting [5]), 6.7. Besides, the response vs control in vivo at 3 mg/kg came out at 121% in test [1] (setting [6]), 113% in test [1] (setting [7]) and 122% in test [1] (setting [8]). The response vs control in vivo at 10 mg/kg came out at 115% in test [1] (10 mg/kg oral, male Okamoto-Aoki rats, read-out: K+ Ratio); 116% in test [1] (10 mg/kg oral, male Okamoto-Aoki rats, read-out: Na+ Ratio); 126% in test [1] (10 mg/kg oral, male Okamoto-Aoki rats, read-out: Volume Ratio). Besides, the response vs control in vivo at 30 mg/kg in test [1] (setting [9]) was found to be 116%; in test [1] (setting [10]), 134%; in test [1] (setting [11]) it was 116%; in test [1] (setting [12]), 130%; in test [1] (setting [13]), 135%; in test [1] (setting [14]), 163%.
